Entries after “also recorded” stand apart in the source; their conditions may differ.
Tests used:
[1] = system: packed RBC (red cell concentrates); assay: In vitro measurements on red cell concentrates stored in AS-3 with or without LC; format: cell-based, human; conditions: AS-3 with 5 mM LC
Description: Blood storage system. Standard CP2D/AS-3 system (Miles, Inc.) Using polyvinyl chloride (PVC) plastic with diethyl-(n)hexyl-phthalate (DEHP) as plasticizer was used. For each test unit, 245 mg LC (in 1.1 mL pure, pyrogen-free solution in a sterilized glass bottle) was added to the container holding the AS-3 additive solution to give a final concentration of 5 mM. For the control units, 1.1 mL 0.9% NaCl was added to the AS-3 solution using the same conditions. Addition of LC or saline to the bags was performed by injecting through a sampling site coupler with a syringe. This was done in a laminar flow hood under UV light.
Donation & Processing. Standard phlebotomy and blood-drawing methods were used with collection of approximately 450±50 mL whole blood. The whole blood unit was held between 4-8 hours at room temperature before processing. The unit was centrifuged using standard conditions and, after centrifugation, the supernatant plasma was expressed off, and the sedimented packed RBC resuspended either in the standard AS-3 solution (control) or the carnitine-containing AS-3 solution (test). The suspended RBC units were stored at 4° C. for 42 days.
In Vitro Measurements: Measurements performed on pre-(0 day) and post-(42-day) samples included RBC ATP levels; total and supernatant hemoglobin; hematocrit (Hct); RBC, WBC, and platelet counts; RBC osmotic fragility; RBC morphology; lactate and glucose levels; supernatant potassium levels. These were performed using standard procedures as described previously, Heaton et al., Vox Sang 57:37-42 (1989).
Statistical analysis. Paired t-test or routine non-parametric statistical analysis was performed on data from the in vivo and in vitro testing of the units to determine if there were any statistically significant differences (1-tail) in the means between the test and control units. Statistical significance was considered at a p value less than 0.05.

transfused stored RBC = assay: In vivo post-transfusion measurements of 42-day stored RBC (51Cr/99Tc labeling); set-up: species or system human; conditions: RBC stored 42 days with 5 mM LC, reinfused into donor
Text: Subjects. The subject population was male or female research subjects between the ages of 18 to 65 years with no known mental or physical disability and taking no drugs that might affect RBC viability. Individuals were recruited who fulfilled the conventional allogeneic donor criteria as listed in the Code of Federal Register, Chapter 2, the Standards of the American Association of Blood Banks, and the Blood Services Directives of the American National Red Cross. The study was approved by the Institutional Review Board of the Medical College of Hampton Roads and the subjects gave informed consent prior to participation in the study.
Each donor donated on two different occasions separated by 72 days, and was randomized to either the test or control arm on the first donation.
In vivo Post-transfusion Measurements. After 42 days of storage, a sample was withdrawn and the stored cells labeled with Cr using standard methods. At the same time, to determine RBC mass, a fresh sample was collected from the donor for RBC labeling with 99 Tc. After labeling, 15 μCi ^51Cr-labeled stored cells and 15 μCi ^99Tc-labeled fresh cells were mixed and simultaneously infused. Blood samples (5 mL) were taken after the infusion at various time intervals for up to 35 days to calculate 24-hour % recovery and survival. The 24-hour % recovery was determined using either the single label method where log-linear regression of the radioactivity levels of samples taken at 5, 7.5, 10, and 15 min. was used to determine 0 time level, or by the double label method using donor RBC mass as determined by the ^99Tc measurement.
Circulating lifespan of the transfused surviving Cr-labeled RBC was determined by samples taken at 24 hours and then twice weekly for up to 5 weeks. The radioactivity levels were corrected for a constant 1% elution per day. The data were fitted to a linear function with post-transfusion days as independent variable (x-axis) and the corrected Cr counts as dependent variable (y-axis). The lifespan of the RBC was then taken as the intersection of the fitted line with the x-axis. […]

stored RBC = assay: Membrane complex lipid reacylation in stored RBC ([1-14C]palmitic acid incorporation); format: cell-based, human
Description: Analysis of membrane complex lipid reacylation in stored RBC. Blood sample was withdrawn from stored RCC unit through a sampling site coupler with a syringe, and the sample processed immediately. This was done in a laminar flow hood under UV light. All the manipulations were conducted at 0-5° C. unless noted. RBC were washed two times with 4 vol. of cold 0.9% NaCl. Isolated RBC were once again washed with incubation buffer (NaCl 120 mM, KCl 5 mM, MgSO4 1 mM, NaH2PO4 1 mM, saccharose 40 mM, 5 mM glucose, Tris-HCl 10 mM, at pH 7.4) and resuspended in the same buffer at a final hematocrit of 5%. A Rotabath shaking bath at 37° C. was used for the incubations. RBC were incubated with the radioactive palmitic acid (10 μM) complexed to fatty acid free BSA (1.65 mg/ml), Incubations were ended by washing cells once with cold incubation buffer, three times with fatty acid free BSA 1% in incubation buffer, and finally once again with incubation buffer. RBC lipids were extracted from intact cells with the Rose & Oaklander procedure, J. Lipid Res. 6: 428-431 (1965). In order to prevent lipid oxidation, 0.1% butylated hydroxytoluene was added to the lipid extracts. Aliquots of the lipid extract were used for determination of lipid phosphorus content, and analyzed by two dimensional thin layer chromatography. Briefly, the chromatograms were developed using chloroform-methanol-28% ammonia (65:25:5) in the first dimension. The chromatograms were then developed using chloroform-acetone-methanol-acetic acid-water (6:8:2:2:1) in the second dimension. Phosphatidylcholine (PC), a phosphatidylethanolamine (PE), and phosphatidylserine were visualized by brief exposure of the plates to iodine and identified using standards as a reference. Individual phospholipid spots were scraped off into vials containing scintillation fluid and radioactivity was determined by liquid scintillation counting. The identification and analysis of radioactive PLC was carried out as recently described, Arduini et al., J. Biol. Chem. 267: 12673-81 (1992). Counting efficiency was evaluated by an external standard. […]

[2] = system: coagulase negative staphylococci; assay: Bacterial growth in spiked extended-storage platelet concentrates; format: cell-based; conditions: for Bacterial growth: platelet concentrate
Description: Study Methods: Two ABO identical prestorage-leuko-reduced platelet concentrates produced by in line filtration of platelet rich plasma (MedSep Corp. Covina, Calif.) were pooled, then equally divided into two CLX® (MedSep) bags. Either LC, to a final concentration of 5 mM, or saline (control) was added to one of each pair. Each container was spiked with 1 ml of a coagulase negative staphylococcal suspension on Day 0 to a final concentration between 1-48 CFU/mL. Samples were removed from each container aseptically on Day 3, Day 6 and either Day 7 or Day 8 for colony count. Data were analyzed by paired t tests.

[3] = system: prestorage-leuko-reduced platelet concentrates; assay: Extended storage of prestorage-leuko-reduced random platelets (glycolysis and platelet quality tests); format: cell-based, human; conditions: 5 mM L-Carnitine, stored seven or eight days at 22° C.
Description: Study Deign: Two ABO identical prestorage-leuko-reduced platelet concentrates produced by in-line filtration of platelet rich plasma (MedSep Inc., Corvina, Calif.) were pooled, then equally divided into two CLX (MedSep) containers. Either L-Carnitine (final concentration 5 mM) or saline was added to one bag of each pair of platelets. Platelets were stored for either seven or eight days at 22° C. on a flatbed agitator, then tested. Tests performed were pH, platelet count, supernatant glucose and lactate, surface p-selectin expression by flow cytometry, extent of shape change (ESC) and hypotonic shock response (HSR). Glucose consumption and lactate production were calculated as mM/10^12 platelets/day. Data were analyzed using paired t-tests.

[4] = system: standard (non-leuko-reduced) platelet concentrates; conditions: extended storage (>5 days; five-ten days); cited from earlier work

Molecule `C[N+](C)(C)C[C@H](O)CC(=O)[O-]` [L-Carnitine, L-carnitine] has an ATP ([1]; post-storage, 42 days at 4° C.) of 3.24 ± 0.38 μmol/g Hb, a Glucose ([1]; post-storage, 42 days at 4° C.) of 193 ± 40 mg/dL and a Hemolysis ([1]; post-storage, 42 days at 4° C.) of 0.30 ± 0.22 %. The Lactate ([1]; post-storage, 42 days at 4° C.) was 199 ± 37 mg/dL, the “Morphological Score” value ([1]; post-storage, 42 days at 4° C.) was 68 ± 15 and the “Osmotic Fragility” value ([1]; post-storage, 42 days at 4° C.) was 50 ± 4%. For the same molecule, the “Supernatant K+” value ([1]; post-storage, 42 days at 4° C.) was 60 ± 3 mEq/L, the pH ([1]; post-storage, 42 days at 4° C.) was 6.32 ± 0.04 and the ATP ([1]; pre-storage (0 day)) was 4.3 ± 0.4 μmol/g Hb. The “Osmotic Fragility” value ([1]; pre-storage (0 day)) was 49 ± 4%, the “Supernatant Hb” value ([1]; pre-storage (0 day)) was 26 ± 8 mg/dL and the “Supernatant K+” value ([1]; pre-storage (0 day)) was 2.2 ± 0.3 mEq/L. The “24 Hr % Recovery (single label)” value (transfused stored RBC) was 84.0 ± 4.4%, the “24 Hr Recovery (double label)” value (transfused stored RBC) was 83.9 ± 5.0 and the “Survival (circulating lifespan of infused stored RBC)” value (transfused stored RBC) was 96.1 ± 11.2 days. For the same molecule, the “Radioactive palmitate incorporation into membrane PE” value (stored RBC; RBC stored in LC-containing AS-3, over storage up to 42 days) was “sudden increase of PE reacylation toward the end of the storage”, the “Radioactive palmitate incorporated into PLC (palmitoyl-L-carnitine)” value (stored RBC; RBC stored in LC-containing AS-3, over storage up to 42 days, listed as LC) was “initial increase (with a nadir at the 3 week) followed by a rapid decrease; also recorded: greater than that found in red cells stored without LC” and the “Radioactive palmitate incorporation into membrane PC” value (stored RBC; RBC stored in LC-containing AS-3 vs AS-3 alone, over storage) was “no differences were observed between the two red cell preparations”. For the same molecule, the Bacterial growth ([2]; Day 0, 5 mM L-Carnitine) was 1.12 ± 0.7 Log CFU/ml, the Bacterial growth ([2]; Day 3, 5 mM L-Carnitine) was 3.04 ± 0.7 Log CFU/ml and the Bacterial growth ([2]; Day 6, 5 mM L-Carnitine) was 3.88 ± 1.0 Log CFU/ml. The “Growth relative to controls” value ([2]; Day 7/8, 5 mM L-Carnitine) was 33%, the Bacterial growth ([2]; Day 7/8, 5 mM L-Carnitine) was 4.60 ± 1.5 Log CFU/ml and the “ESC (extent of shape change)” value [3] was 12 ± 4%. The Glucose concentration [3] was 1.13 ± 0.2, the “HSR (hypotonic shock response)” value [3] was 50 ± 22% and the Lactate production [3] was 1.50 ± 0.2 mM/10^12 platelets/day. The pH [3] was 7.09 ± 0.1, the “P-selectin (% positive)” value ([3]; flow cytometry) was 69 ± 9% and the “Effect on glycolysis in stored platelet concentrates” value [4] was “reduces glycosis; also recorded: reduces glycolysis”.

— patent US7851142B2, “Method of reducing glycolysis in platelet concentrates using L-carnitine, alkanoyl carnitines and salts thereof” (priority 1997, dated 2010)
